The values that follow are results of earlier work, collected in patent US20220304980A1, “METERED DOSING COMPOSITIONS AND METHODS OF USE OF P[…]” (SW Holdings, Inc, priority 2019, published 2022).

One data set has as its target 5-HT2A receptor (Homo sapiens, UniProt P28223). The settings on record: selective 5-HT2A antagonists; cited from earlier work.
In another data set the test system is rat veins. The settings on record: cited from earlier work.

Sequence of 5-HT2A receptor (P28223 whole entry): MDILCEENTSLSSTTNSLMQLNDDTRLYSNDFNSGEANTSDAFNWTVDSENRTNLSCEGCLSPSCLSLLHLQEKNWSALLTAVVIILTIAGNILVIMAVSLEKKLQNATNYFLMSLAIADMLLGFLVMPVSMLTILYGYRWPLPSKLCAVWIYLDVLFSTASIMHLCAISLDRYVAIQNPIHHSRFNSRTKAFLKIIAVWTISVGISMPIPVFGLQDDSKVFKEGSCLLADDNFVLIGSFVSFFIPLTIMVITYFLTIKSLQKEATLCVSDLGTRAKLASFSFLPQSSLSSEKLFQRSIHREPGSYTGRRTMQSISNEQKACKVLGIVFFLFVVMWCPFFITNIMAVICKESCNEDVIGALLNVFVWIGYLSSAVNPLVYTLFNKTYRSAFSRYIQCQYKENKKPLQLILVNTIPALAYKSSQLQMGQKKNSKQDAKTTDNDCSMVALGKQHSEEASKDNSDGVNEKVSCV

For the molecule `O=CN1CCC(C(=O)NCCN2CCC(=C3c4ccccc4C=Cc4ccccc43)CC2)CC1` [AT-1015], the vascular effect result at 5-HT2A receptor is listed as “vasodilating properties”.

Regarding `COc1cc(CC(C)N)c(OC)cc1I` (centres unmarked) [DOI], the “effect on rat veins” value in the data set on rat veins (5-HT2A agonist) is reported as “constricts rat veins”.

As for `O=C(c1ccc(F)cc1)C1CCN(CCn2c(=O)[nH]c3ccccc3c2=O)CC1` [ketanserin], the vascular effect result at 5-HT2A receptor is “vasodilating properties”. Further, the “effect on DOI-induced constriction of rat veins” value in the data set with rat veins (5-HT2A antagonist) is listed as “blocked”.

With `COc1cccc(CCc2ccccc2OCC(CN(C)C)OC(=O)CCC(=O)O)c1` (centres unmarked) [sarpogrelate], the vascular effect entry on 5-HT2A receptor is reported as “vasodilating properties”.
